Laboratory results published in the supplement of paper PMC6045584.
± gives the standard deviation of the averaged measurements.

Assays:
GEFITINIB [1] = compound: T1, COc1cc2ncnc(Nc3ccc(F)c(Cl)c3)c2cc1OCCCN1CCOCC1 [GEFITINIB]; experiment: area under dose-response curve of surviving fraction (unscaled, Aref=0) (surviving fraction x log10(nM)); higher = more resistant; conditions: exposure time: 5 days; dose range 0.5-1000 nM
In short: (§1)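 Tumour cell lines in 384-well plates were exposed for five days to eight inhibitor concentrations from 0.5 to 1000 nM. Viability was read by CellTiter-Glo luminescence, normalised to DMSO-only wells, in three screens per line. Dose-response survival curves were fitted to surviving fractions by 3-parameter logistic regression in the drc R package. Area under the curve is the unscaled activity area (Aref = 0) over log10 dose.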

YM155 [2] = compound: T2, COCC[n+]1c2c(n(Cc3cnccn3)c1C)C(=O)c1ccccc1C2=O [YM155]; experiment: as above; conditions: exposure time: 5 days; dose range 0.5-1000 nM
In short: as §1

[3] = compound: CC(=O)NCC(=O)N1[C@@H]2CC[C@H]1c1ccc(Nc3ncc(C(F)(F)F)c(NC4CCC4)n3)cc12; experiment: as above; conditions: exposure time: 5 days; dose range 0.5-1000 nM
In short: as §1

CAMPTOTHECIN [4] = compound: T3, CC[C@@]1(O)C(=O)OCc2c1cc1n(c2=O)Cc2cc3ccccc3nc2-1 [CAMPTOTHECIN]; experiment: as above; conditions: exposure time: 5 days; dose range 0.5-1000 nM
In short: as §1

CARBOPLATIN [5] = compound: T4, O=C(O)C1(C(=O)O)CCC1.[NH2-].[NH2-].[Pt+2] [CARBOPLATIN]; experiment: as above; conditions: exposure time: 5 days; dose range 0.5-1000 nM
In short: as §1

PACLITAXEL [6] = compound: T5, CC(=O)O[C@H]1C(=O)[C@@]2(C)[C@H]([C@H](OC(=O)c3ccccc3)[C@]3(O)C[C@H](OC(=O)[C@H](O)[C@@H](NC(=O)c4ccccc4)c4ccccc4)C(C)=C1C3(C)C)[C@]1(OC(C)=O)CO[C@@H]1C[C@@H]2O [PACLITAXEL]; experiment: as above; conditions: exposure time: 5 days; dose range 0.5-1000 nM
In short: as §1

OSI-906 [7] = compound: T6, C[C@]1(O)C[C@@H](c2nc(-c3ccc4ccc(-c5ccccc5)nc4c3)c3c(N)nccn32)C1 [OSI-906]; experiment: as above; conditions: exposure time: 5 days; dose range 0.5-1000 nM
In short: as §1

CELECOXIB [8] = compound: T7, Cc1ccc(-c2cc(C(F)(F)F)nn2-c2ccc(S(N)(=O)=O)cc2)cc1 [CELECOXIB]; experiment: as above; conditions: exposure time: 5 days; dose range 0.5-1000 nM
In short: as §1

GEFITINIB [9] = compound: T1, GEFITINIB; experiment: surviving fraction relative to DMSO-only wells; higher = less growth inhibition; conditions: exposure time: 5 days
In short: (§2)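 Tumour cell lines in log phase were plated in 384-well plates at 250–500 cells per well, then, after 24 hours, exposed continuously for five days to inhibitors at 0.5, 1, 5, 10, 50, 100, 500 and 1000 nM. Viability came from CellTiter-Glo luminescence, and surviving fraction is that signal normalised to the median of DMSO-only wells. Plates were read after 10 minutes at room temperature, and each line, screened three times, was kept only when replicate Pearson r was >0.7 and median Z' was >0.3.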

[10] = compound: CC(=O)c1c(C)c2cnc(Nc3ccc(N4CCNCC4)cn3)nc2n(C2CCCC2)c1=O; experiment: as above; conditions: exposure time: 5 days
In short: as §2

YM155 [11] = compound: T2, YM155; experiment: as above; conditions: exposure time: 5 days
In short: as §2

[12] = compound: CC(=O)NCC(=O)N1[C@@H]2CC[C@H]1c1ccc(Nc3ncc(C(F)(F)F)c(NC4CCC4)n3)cc12; experiment: as above; conditions: exposure time: 5 days
In short: as §2

CAMPTOTHECIN [13] = compound: T3, CAMPTOTHECIN; experiment: as above; conditions: exposure time: 5 days
In short: as §2

CARBOPLATIN [14] = compound: T4, CARBOPLATIN; experiment: as above; conditions: exposure time: 5 days
In short: as §2

PACLITAXEL [15] = compound: T5, PACLITAXEL; experiment: as above; conditions: exposure time: 5 days
In short: as §2

OSI-906 [16] = compound: T6, OSI-906; experiment: as above; conditions: exposure time: 5 days
In short: as §2

CELECOXIB [17] = compound: T7, CELECOXIB; experiment: as above; conditions: exposure time: 5 days
In short: as §2

## VP229 BREAST
GEFITINIB [1]
  area under dose-response curve: 2.63
YM155 [2]
  area under dose-response curve: 1.79
[3]
  area under dose-response curve: 2.78
CAMPTOTHECIN [4]
  area under dose-response curve: 1.81
CARBOPLATIN [5]
  area under dose-response curve: 3.55
PACLITAXEL [6]
  area under dose-response curve: 1.56
OSI-906 [7]
  area under dose-response curve: 2.77
CELECOXIB [8]
  area under dose-response curve: 4.03
GEFITINIB [9]; 0.5 nM
  surviving fraction: 1.14 ± 0.062
GEFITINIB [9]; 1 nM
  surviving fraction: 1.08 ± 0.09
GEFITINIB [9]; 5 nM
  surviving fraction: 1.07 ± 0.033
GEFITINIB [9]; 10 nM
  surviving fraction: 0.974 ± 0.098
GEFITINIB [9]; 50 nM
  surviving fraction: 0.875 ± 0.084
GEFITINIB [9]; 100 nM
  surviving fraction: 0.681 ± 0.042
GEFITINIB [9]; 500 nM
  surviving fraction: 0.347 ± 0.028
GEFITINIB [9]; 1000 nM
  surviving fraction: 0.281 ± 0.008
[10]; 0.5 nM
  surviving fraction: 1.1 ± 0.1
[10]; 1 nM
  surviving fraction: 1.05 ± 0.04
[10]; 5 nM
  surviving fraction: 1.06 ± 0.034
[10]; 10 nM
  surviving fraction: 0.852 ± 0.093
[10]; 50 nM
  surviving fraction: 0.995 ± 0.055
[10]; 100 nM
  surviving fraction: 0.978 ± 0.15
[10]; 500 nM
  surviving fraction: 0.932 ± 0.037
[10]; 1000 nM
  surviving fraction: 0.776 ± 0.075
YM155 [11]; 0.5 nM
  surviving fraction: 1.04 ± 0.023
YM155 [11]; 1 nM
  surviving fraction: 1.03 ± 0.18
YM155 [11]; 5 nM
  surviving fraction: 0.903 ± 0.17
YM155 [11]; 10 nM
  surviving fraction: 0.874 ± 0.081
YM155 [11]; 50 nM
  surviving fraction: 0.265 ± 0.085
YM155 [11]; 100 nM
  surviving fraction: 0.137 ± 0.0015
YM155 [11]; 500 nM
  surviving fraction: 0.046 ± 0.01
YM155 [11]; 1000 nM
  surviving fraction: 0.042 ± 0.007
[12]; 0.5 nM
  surviving fraction: 1.08 ± 0.051
[12]; 1 nM
  surviving fraction: 1.1 ± 0.12
[12]; 5 nM
  surviving fraction: 1.02 ± 0.15
[12]; 10 nM
  surviving fraction: 0.999 ± 0.04
[12]; 50 nM
  surviving fraction: 0.917 ± 0.046
[12]; 100 nM
  surviving fraction: 0.548 ± 0.016
[12]; 500 nM
  surviving fraction: 0.624 ± 0.031
[12]; 1000 nM
  surviving fraction: 0.556 ± 0.057
CAMPTOTHECIN [13]; 0.5 nM
  surviving fraction: 0.862 ± 0.018
CAMPTOTHECIN [13]; 1 nM
  surviving fraction: 0.912 ± 0.14
CAMPTOTHECIN [13]; 5 nM
  surviving fraction: 0.794 ± 0.17
CAMPTOTHECIN [13]; 10 nM
  surviving fraction: 0.662 ± 0.14
CAMPTOTHECIN [13]; 50 nM
  surviving fraction: 0.569 ± 0.037
CAMPTOTHECIN [13]; 100 nM
  surviving fraction: 0.348 ± 0.084
CAMPTOTHECIN [13]; 500 nM
  surviving fraction: 0.0443 ± 0.01
CAMPTOTHECIN [13]; 1000 nM
  surviving fraction: 0.0333 ± 0.0031
CARBOPLATIN [14]; 0.5 nM
  surviving fraction: 1.12 ± 0.14
CARBOPLATIN [14]; 1 nM
  surviving fraction: 1.05 ± 0.022
CARBOPLATIN [14]; 5 nM
  surviving fraction: 1.11 ± 0.12
CARBOPLATIN [14]; 10 nM
  surviving fraction: 0.961 ± 0.088
CARBOPLATIN [14]; 50 nM
  surviving fraction: 1.17 ± 0.21
CARBOPLATIN [14]; 100 nM
  surviving fraction: 1.05 ± 0.025
CARBOPLATIN [14]; 500 nM
  surviving fraction: 1.19 ± 0.096
CARBOPLATIN [14]; 1000 nM
  surviving fraction: 0.956 ± 0.14
PACLITAXEL [15]; 0.5 nM
  surviving fraction: 1.05 ± 0.091
PACLITAXEL [15]; 1 nM
  surviving fraction: 0.93 ± 0.067
PACLITAXEL [15]; 5 nM
  surviving fraction: 0.516 ± 0.064
PACLITAXEL [15]; 10 nM
  surviving fraction: 0.364 ± 0.041
PACLITAXEL [15]; 50 nM
  surviving fraction: 0.338 ± 0.013
PACLITAXEL [15]; 100 nM
  surviving fraction: 0.27 ± 0.019
PACLITAXEL [15]; 500 nM
  surviving fraction: 0.279 ± 0.052
PACLITAXEL [15]; 1000 nM
  surviving fraction: 0.293 ± 0.024
OSI-906 [16]; 0.5 nM
  surviving fraction: 0.856 ± 0.095
OSI-906 [16]; 1 nM
  surviving fraction: 0.825 ± 0.078
OSI-906 [16]; 5 nM
  surviving fraction: 0.874 ± 0.039
OSI-906 [16]; 10 nM
  surviving fraction: 0.9 ± 0.038
OSI-906 [16]; 50 nM
  surviving fraction: 0.925 ± 0.1
OSI-906 [16]; 100 nM
  surviving fraction: 0.867 ± 0.048
OSI-906 [16]; 500 nM
  surviving fraction: 0.767 ± 0.14
OSI-906 [16]; 1000 nM
  surviving fraction: 0.665 ± 0.11
CELECOXIB [17]; 0.5 nM
  surviving fraction: 1.15 ± 0.15
CELECOXIB [17]; 1 nM
  surviving fraction: 1.21 ± 0.19
CELECOXIB [17]; 5 nM
  surviving fraction: 1.21 ± 0.12
CELECOXIB [17]; 10 nM
  surviving fraction: 1.12 ± 0.13
CELECOXIB [17]; 50 nM
  surviving fraction: 1.15 ± 0.052
CELECOXIB [17]; 100 nM
  surviving fraction: 1.27 ± 0.03
CELECOXIB [17]; 500 nM
  surviving fraction: 1.25 ± 0.076
CELECOXIB [17]; 1000 nM
  surviving fraction: 1.4 ± 0.049
